Laboratory results reported in patent US20240341301A1 (The Regents of the University of Michigan, priority 2023, published 2024).

Assays:
[1] = test system: H3K9 and H3K27 histone acetylation; assay: Histone acetylation Western blot in cold-preserved human donor hearts; details: HTK containing VPA, cold (4° C.) static preservation 8 h
Protocol: Heart procurement for both human and pigs were performed as follows. A sternotomy is performed under general anesthesia. The pericardium is then opened to create a pericardial cradle for the heart. Heparin (300U/kg) administered through the right atrium or in a peripheral vein. After waiting 3 minute for adequate anticoagulation from heparin, a 9 Fr antegrade plegia infusion catheter is placed in the ascending aorta. Approximately 1 liter of autologous donor arterial blood is then collected into a collection bottle containing heparin. […] Subsequently, the ascending aorta is cross-clamped distal to the cardioplegia catheter and 1 liter of cold (4° C.) HTK solution is infused into the coronaries at a perfusion pressure of ˜80 mmHg to induce mechanical arrest. After excising the heart completely, it is transported to the back-table for infusion of 2 liters of HTK±VPA solution. After completion, the heart is stored in a solution identical to the perfusate at 4° C. on ice.
Pig hearts underwent ex-vivo perfusion after preservation for 4 or 10 hours. Approval for human heart procurement was obtained from the University of Michigan Institutional Review Board (HUM00131275). Human donor hearts from deceased brain death donors were procured as per standard clinical protocols from the Gift of Life Michigan (GOLM) organ procurement facility. […]

[2] = test system: human donor hearts; assay: Mass spectrometry metabolomics of cold-preserved human donor hearts
Protocol: (§1) Pig hearts underwent ex-vivo perfusion after preservation for 4 or 10 hours. Approval for human heart procurement was obtained from the University of Michigan Institutional Review Board (HUM00131275). Human donor hearts from deceased brain death donors were procured as per standard clinical protocols from the Gift of Life Michigan (GOLM) organ procurement facility. Myocardial biopsies (˜5 mm^3) of LV were biopsied immediately after cardioplegic arrest (0 h) and after 8 hours (8 h) of cold storage in a cooler containing ice. […] Causes of death were stroke (n=4), trauma (n=2), drug overdose (n=1), and cardiac arrest (n=1). Heart tissue were either fixed in formalin or snap frozen in liquid N2 for later analysis.
Metabolomics measurements were performed by the Michigan Regional Comprehensive Metabolomics Resource Core (Ann Arbor, MI, USA).

[3] = test system: murine donor hearts; assay: Murine donor heart tissue staining and Western blot (oxidative stress, antioxidant proteins, cell death); set-up: species or system mouse
Protocol: Male and female WT or Irg1^−/− mice (Jackson laboratories, Bar Harbor, ME) were anesthetized intraperitoneally with 80 mg/kg ketamine and 5 mg/kg xylazine, anticoagulated with heparin (2,000 U/kg iv), and the heart was rapidly exposed through a sternal incision. The aorta was cannulated and retrograde perfused in-situ with HTK solution±HDAC inhibitors. After cannulation, the heart dissected free, the left atrium was opened. For 4-OI (Cayman Chemical, 25374) experiments, donor mice were treated 4-OI (dissolved in 40% β-Cyclodextrin, 50 mg/kg intraperitoneally) or vehicle control (40% β-Cyclodextrin intraperitoneally) 2 hours prior to donor heart procurement. After dissection, the heart was stored at 4° C. with HTK or HTK with VPA for a pre-designated duration. The hearts were then mounted on a Radnoti mouse Langendorff apparatus (ADInstruments inc., Colorado Springs, CO) in constant-pressure mode (˜70 mmHg) with a modified Krebs-Henseleit buffer (KHB; in mM: 118 NaCl, 4.7 KCl, 1.25 CaCl2), 1.66 MgSO4, 24.88 NaHCO3, 1.18 KH2PO4, 5.55 glucose, and 2.0 Na-pyruvate). A balloon was placed in the LV through the left atrium and left ventricular diastolic pressure was set to ˜8 mmHg at initiation. The heart was perfused with modified Krebs-Henseleit buffer for 30 min to stabilize and then hemodynamics measurements were recorded. Myocardial temperature was maintained at 37° C. LabChart software (ADInstruments inc., Colorado Springs, CO) was used to record ventricular function, perfusion pressures, cardiac chamber temperature and myocardial temperature. After perfusing the heart for 60 minutes, the heart was removed from the ex-vivo perfusion apparatus for specimen collection. Tissue was immediately placed in liquid N2 or treated with 4% formalin.

[4] = cited from earlier work
[5] = test system: IRG1; assay: IRG1 enhancer ChIP-qPCR and mRNA expression in human donor heart tissue
Protocol: as §1

[6] = human hearts during cardiac preservation
[7] = 16 hours preservation, ex-vivo perfusion
[8] = ex vivo perfused WT murine hearts

## CCCC(CCC)C(=O)O [VPA, 2-Propyl-pentanoic acid]
[1]
  histone acetylation (H3K9, H3K27) after prolonged cardiac preservation: maintained
[2]; cold preservation, HTK±VPA
  decrease in itaconate during cold storage: limited
  succinate production: reduced
[2]; [6]
  fumarate concentration in VPA-treated group: 43.5±6.6 pmol/mg tissue
  itaconate concentration in VPA-treated group: 8.0±1.0 pmol/mg tissue
[3]; [7]
  overall oxidative stress (DHE staining): decreased
  oxidative DNA damage (8OHdG staining): decreased
[3]; Irg1−/− hearts
  NRF2 nuclear translation effect: greatly reduced
  benefit on TUNEL staining in α-actinin+ cardiomyocytes: lost
[3]; Irg1−/− murine hearts
  antioxidant protein expression: no increase
[3]; WT hearts
  NRF2 nuclear translation from the cytoplasm: induced
[3]; [8]
  protein abundance of HO1: upregulated
  protein abundance of SOD1: upregulated
  protein abundance of SOD2: not
  protein abundance of total NRF2: upregulated
[3]; preserved and transplanted murine hearts
  ratio of reduced (GSH) versus oxidized glutathione (GSSG): increased
[3]; wild type hearts
  TUNEL staining in α-actinin+ cardiomyocytes: reduced
[4]
  water solubility: water soluble
[5]; 8-hours of preservation compared to HTK alone
  IRG1 enhancer activity (H3K27ac ChIP-qPCR): increased
[5]; human hearts after preservation
  IRG1 mRNA transcript expression: increased
